# Results from patent US20250115654A1, “PHARMACEUTICAL COMPOSITION OF GLP-1 RECEPTOR AND GIP RECEPTOR DUAL AGONIST, AND USE THEREOF” (FUJIAN SHENGDI PHARMACEUTICAL CO., LTD., priority 2021, published 2025).
# Marks after values point to notes of the source that are not given here. Numbered stars: 1 amine (or outer) side, 2 acyl side, 3 side chain; on linkers, the order of the positions; unused ones are H or OH. Square brackets hold non-standard residues; d marks the D form. Side chains are listed from the residue outwards. Peptide text beside a SMILES is read from it. * marks the point of attachment. C20 diacid = O=C(O)CCCCCCCCCCCCCCCCCCC(=O)*; γGlu = O=C(O)[C@H](CCC(=O)[*:2])N[*:1]; AEEA = NCCOCCOCC(=O)O; Aib = CC(C)(N)C(=O)O
# System: diet-induced-obesity mice
# Test: Body weight of diet-induced-obesity mice, subcutaneous administration once every 3 days
# Format: in vivo, C57BL/6 mice
smiles,measurement,setting,value
CC[C@H](C)[C@H](NC(=O)[C@H](CCCCN)NC(=O)[C@H](CCC(=O)O)NC(=O)[C@H](CCCCNC(=O)COCCOCCNC(=O)COCCOCCNC(=O)CC[C@H](NC(=O)CCCCCCCCCCCCCCCCCCC(=O)O)C(=O)O)NC(=O)[C@H](Cc1ccc(O)cc1)NC(=O)[C@@H](NC(=O)[C@H](CO)NC(=O)[C@H](Cc1ccc(O)cc1)NC(=O)[C@H](CC(=O)O)NC(=O)[C@H](CO)NC(=O)[C@@H](NC(=O)[C@H](Cc1ccccc1)NC(=O)[C@@H](NC(=O)CNC(=O)[C@H](CCC(=O)O)NC(=O)C(C)(C)NC(=O)[C@@H](N)Cc1ccc(O)cc1)[C@@H](C)O)[C@@H](C)O)[C@@H](C)CC)C(=O)N[C@@H](C)C(=O)N[C@@H](C)C(=O)N[C@@H](CCC(N)=O)C(=O)N[C@@H](CCC(=O)O)C(=O)N[C@@H](Cc1ccccc1)C(=O)N[C@H](C(=O)N[C@@H](CC(N)=O)C(=O)N[C@@H](Cc1c[nH]c2ccccc12)C(=O)N[C@@H](CC(C)C)C(=O)N[C@@H](CC(C)C)C(=O)N[C@@H](C)C(=O)NCC(=O)NCC(=O)N1CCC[C@H]1C(=O)N[C@@H](CO)C(=O)N[C@@H](CO)C(=O)NCC(=O)N[C@@H](C)C(=O)N1CCC[C@H]1C(=O)N1CCC[C@H]1C(=O)N1CCC[C@H]1C(=O)N[C@@H](CO)C(N)=O)C(C)C [Compound 18#] (H-Y[Aib]EGTFTSDYSIYK([AEEA-AEEA-γGlu-C20 diacid])EKIAAQEFVNWLLAGGPSSGAPPPS-NH2),rate of change in body weight,"3 nmol/kg, day 0 (before administration)",0%
same,rate of change in body weight,"3 nmol/kg, day 1 after administration",−5 ± 0.6%
same,rate of change in body weight,"3 nmol/kg, day 2 after administration",−6.3 ± 1 ^ %
same,rate of change in body weight,"3 nmol/kg, day 3 after administration",−5.8 ± 1.9%
same,rate of change in body weight,"3 nmol/kg, day 4 after administration",−9.1 ± 2.1 %
same,rate of change in body weight,"3 nmol/kg, day 5 after administration",−10.3 ± 3.2 %
same,rate of change in body weight,"3 nmol/kg, day 6 after administration",−10 ± 4.4 %
same,rate of change in body weight,"3 nmol/kg, day 7 after administration",−13 ± 5.3 %
same,rate of change in body weight,"3 nmol/kg, day 8 after administration",−13.9 ± 6.1 %
same,rate of change in body weight,"3 nmol/kg, day 9 after administration",−13.9 ± 7.4 %
same,rate of change in body weight,"3 nmol/kg, day 10 after administration",−16.6 ± 7.8 %
same,rate of change in body weight,"3 nmol/kg, day 11 after administration",−16.4 ± 8.2 %
same,rate of change in body weight,"3 nmol/kg, day 12 after administration",−15.7 ± 8.6 %
same,rate of change in body weight,"3 nmol/kg, day 13 after administration",−18.2 ± 8.2 %
same,rate of change in body weight,"3 nmol/kg, day 14 after administration",−17.1 ± 7.2 %
same,rate of change in body weight,"3 nmol/kg, day 15 after administration",−15.7 ± 7.4 %
same,rate of change in body weight,"3 nmol/kg, day 16 after administration",−18.6 ± 7 %
same,rate of change in body weight,"3 nmol/kg, day 17 after administration",−18.3 ± 7***^ %
same,rate of change in body weight,"3 nmol/kg, day 18 after administration",−17.9 ± 7.1 %
same,rate of change in body weight,"3 nmol/kg, day 19 after administration",−20.5 ± 7.5 %
same,rate of change in body weight,"3 nmol/kg, day 20 after administration",−19.8 ± 7.4 %
same,rate of change in body weight,"3 nmol/kg, day 21 after administration",−17.8 ± 7.3 %
same,rate of change in body weight,"3 nmol/kg, day 22 after administration",−19.3 ± 8.2 %
same,rate of change in body weight,"3 nmol/kg, day 23 after administration",−19.1 ± 7.6 %
same,rate of change in body weight,"3 nmol/kg, day 24 after administration",−17.3 ± 7.4 %
same,rate of change in body weight,"3 nmol/kg, day 25 after administration",−19.9 ± 7.6 %
same,rate of change in body weight,"3 nmol/kg, day 26 after administration",−18.8 ± 8 %
same,rate of change in body weight,"3 nmol/kg, day 27 after administration",−16.1 ± 7.6 %
same,rate of change in body weight,"3 nmol/kg, day 28 after administration",−19.2 ± 8***^ %
same,body weight reduced,"10 nmol/kg dose group, day 27",more than 20.0%
same,rate of change in body weight,"10 nmol/kg, day 0 (before administration)",0%
same,rate of change in body weight,"10 nmol/kg, day 1 after administration",−6.2 ± 1.1%
same,rate of change in body weight,"10 nmol/kg, day 2 after administration",−8.6 ± 0.9 %
same,rate of change in body weight,"10 nmol/kg, day 3 after administration",−9.4 ± 1.6 %
same,rate of change in body weight,"10 nmol/kg, day 4 after administration",−12.7 ± 2.4 %
same,rate of change in body weight,"10 nmol/kg, day 5 after administration",−14.5 ± 3.3 %
same,rate of change in body weight,"10 nmol/kg, day 6 after administration",−15 ± 5.3 %
same,rate of change in body weight,"10 nmol/kg, day 7 after administration",−18.3 ± 6.3 %
same,rate of change in body weight,"10 nmol/kg, day 8 after administration",−20.1 ± 8***^ %
same,rate of change in body weight,"10 nmol/kg, day 9 after administration",−20.3 ± 9.3 %
same,rate of change in body weight,"10 nmol/kg, day 10 after administration",−23.4 ± 9.8 %
same,rate of change in body weight,"10 nmol/kg, day 11 after administration",−23.9 ± 10.7 %
same,rate of change in body weight,"10 nmol/kg, day 12 after administration",−23.5 ± 11.4 %
same,rate of change in body weight,"10 nmol/kg, day 13 after administration",−26.4 ± 11.8 %
same,rate of change in body weight,"10 nmol/kg, day 14 after administration",−25.1 ± 12.1 %
same,rate of change in body weight,"10 nmol/kg, day 15 after administration",−23.4 ± 9***^ %
same,rate of change in body weight,"10 nmol/kg, day 16 after administration",−26.6 ± 9.7 %
same,rate of change in body weight,"10 nmol/kg, day 17 after administration",−25.7 ± 8.7 %
same,rate of change in body weight,"10 nmol/kg, day 18 after administration",−24.6 ± 8.2 %
same,rate of change in body weight,"10 nmol/kg, day 19 after administration",−27.5 ± 7.6 %
same,rate of change in body weight,"10 nmol/kg, day 20 after administration",−27.3 ± 7.2 %
same,rate of change in body weight,"10 nmol/kg, day 21 after administration",−24.8 ± 6.7 %
same,rate of change in body weight,"10 nmol/kg, day 22 after administration",−28.1 ± 7.4 %
same,rate of change in body weight,"10 nmol/kg, day 23 after administration",−27.1 ± 7***^ %
same,rate of change in body weight,"10 nmol/kg, day 24 after administration",−26 ± 7.1 %
same,rate of change in body weight,"10 nmol/kg, day 25 after administration",−28.5 ± 8.8 %
same,rate of change in body weight,"10 nmol/kg, day 26 after administration",−27.8 ± 8.3 %
same,rate of change in body weight,"10 nmol/kg, day 27 after administration",−24.8 ± 8.4 %
same,rate of change in body weight,"10 nmol/kg, day 28 after administration",−28.2 ± 8.3 %
same,rate of change in body weight,"100 nmol/kg, day 0 (before administration)",0%
same,rate of change in body weight,"100 nmol/kg, day 1 after administration",−6.3 ± 0.5%
same,rate of change in body weight,"100 nmol/kg, day 2 after administration",−10.9 ± 0.8 %
same,rate of change in body weight,"100 nmol/kg, day 3 after administration",−13.2 ± 1 %
same,rate of change in body weight,"100 nmol/kg, day 4 after administration",−15.7 ± 0.9 %
same,rate of change in body weight,"100 nmol/kg, day 5 after administration",−19.2 ± 1.3 %
same,rate of change in body weight,"100 nmol/kg, day 6 after administration",−21.8 ± 2.3 %
same,rate of change in body weight,"100 nmol/kg, day 7 after administration",−24.7 ± 3.3 %
same,rate of change in body weight,"100 nmol/kg, day 8 after administration",−27.6 ± 3.7 %
same,rate of change in body weight,"100 nmol/kg, day 9 after administration",−29.6 ± 4.7 %
same,rate of change in body weight,"100 nmol/kg, day 10 after administration",−31.6 ± 5.3 %
same,rate of change in body weight,"100 nmol/kg, day 11 after administration",−33.7 ± 6.3 %
same,rate of change in body weight,"100 nmol/kg, day 12 after administration",−34.4 ± 7.1 %
same,rate of change in body weight,"100 nmol/kg, day 13 after administration",−35.6 ± 6.2 %
same,rate of change in body weight,"100 nmol/kg, day 14 after administration",−36.7 ± 5.7 %
same,rate of change in body weight,"100 nmol/kg, day 15 after administration",−35.7 ± 5.6 %
same,rate of change in body weight,"100 nmol/kg, day 17 after administration",−38.2 ± 6.2 %
same,rate of change in body weight,"100 nmol/kg, day 18 after administration",−37.8 ± 6.5 %
same,rate of change in body weight,"100 nmol/kg, day 19 after administration",−38.5 ± 6.5 %
same,rate of change in body weight,"100 nmol/kg, day 20 after administration",−39 ± 6.5 %
same,rate of change in body weight,"100 nmol/kg, day 21 after administration",−37.4 ± 6.6 %
same,rate of change in body weight,"100 nmol/kg, day 22 after administration",−38.3 ± 6.2 %
same,rate of change in body weight,"100 nmol/kg, day 23 after administration",−38 ± 5.9 %
same,rate of change in body weight,"100 nmol/kg, day 24 after administration",−36.8 ± 5.8 %
same,rate of change in body weight,"100 nmol/kg, day 25 after administration",−38.6 ± 5.7 %
same,rate of change in body weight,"100 nmol/kg, day 26 after administration",−38.9 ± 6 %
same,rate of change in body weight,"100 nmol/kg, day 27 after administration",−36.8 ± 5.3 %
same,rate of change in body weight,"100 nmol/kg, day 28 after administration",−37.9 ± 5.7 %
same,body weight-reducing effect on high-fat food-induced-obesity mice,"doses of 3, 10 and 100 nmol/kg",significant body weight-reducing effect
